Test results published in paper PMC3585964, “Tissue Inhibitor of Metalloproteinases-3 Peptides Inhibit Angiogenesis and Choroidal Neovascularization in Mice” (PLoS ONE, 2013).
“Also recorded” adds a separate entry of the source.

Key:
[1] = system: ERK1 (p44) and ERK2 (p42) in PAE/KDR cells; assay: VEGF-stimulated ERK1/2 (MAP kinase) phosphorylation (western blot); type: cell-based, Porcine; conditions: 20 µM peptide
Procedure: (§1) Porcine Aortic Endothelial cells expressing VEGFR-2 (PAEKDR) were cultured in Ham’s F-12/DMEM medium supplemented with 10% fetal bovine serum (FBS) (Hyclone), 50 units/ml penicillin and 50 µg/ml streptomycin as described previously. Recombinant human VEGF was a kind gift from Genentech, CA. Antibodies: Anti-Phosphotyrosine clone 4G10 (Upstate Biotechnology/Millipore, Billerica, MA), monoclonal anti-Flk-1 (A-3) (Santa Cruz Biotechnology, Santacruz, CA), MAPK and phospho-specific MAPK antibodies (Calbiochem-Novabiochem Corporation/EMD chemicals, Gibbstown, NJ).
(§2) Immunoprecipitates of cell lysates with the indicated antibodies were subjected to SDS-PAGE and western blot analysis. Proteins were detected with either a HRP-conjugated anti-rabbit or anti-mouse IgG antibody (Amersham Pharmacia Biotech., Piscataway, NJ) followed by ECL. […]
(§3) Figure 3 Effects of TIMP-3 peptides on VEGF signaling in endothelial cells. […] Cell lysates were separated by SDS-PAGE (10%) and analyzed by immunoprecipitation with an anti-KDR anti-body followed by immunoblotting with an anti-phosphotyrosine antibody, 4G10 (top panel). KDR protein was analyzed by immunoprecipitation and immunoblotting of cell lysates using anti-KDR antibody (bottom panel). (b) Densitometric quantitation of 210-kDa bands for phospho- or total mature form of KDR. […]

[2] = system: VEGFR-2 (KDR) in PAE/KDR cells; assay: VEGF-induced VEGFR-2 phosphorylation (immunoprecipitation/western blot); type: cell-based, Porcine; conditions: 20 µM peptide, 50 ng/ml VEGF
Procedure: as §1, §2, §3

[3] = system: PAE/KDR cells; assay: Modified Boyden chamber migration assay; type: cell-based, Porcine; conditions: peptide up to 20 µM; 50 ng/ml VEGF, 4 h 37°C, mini-Boyden chamber; quadruplicate samples
Procedure: as §1
A modified Boyden chamber assay was performed as described previously. Briefly, 8.0 µm pore PVPF polycarbonate membranes were pre-coated with 100 µg/ml collagen type I in 0.2 N acetic acid (Cohesion technologies, Inc. Palo Alto, California). VEGF at the indicated concentrations was placed in the lower chamber, and cells (2×10^5) in serum-free medium were placed in the upper chambers. […] The number of migrating cells per well was evaluated by light microscopy.
Figure 4 Effects of TIMP-3 peptides on VEGF-mediated EC migration. […] Cells were analyzed for migration towards 50 ng/ml VEGF in the presence or absence of increasing concentrations of loop 6 (a) and tail peptides (b) or 20 µM loop 5 or N-peptide (c), respectively, using a mini-Boyden chamber incubated at 37°C for 4 h.

[4] = biological target: VEGFR-2 (KDR/Fc chimera) binding to VEGF (Homo sapiens, UniProt P35968); assay: Competitive ELISA, binding of sVEGFR-2/Fc to immobilized VEGF; conditions: competitive ELISA, 50 ng/ml sVEGFR-2, peptides in 0.5 M Tris-HCl pH 7.5
VEGFR-2 (KDR/Fc chimera) binding to VEGF, sequence (P35968 with tags, fused parts or gaps limits assumed): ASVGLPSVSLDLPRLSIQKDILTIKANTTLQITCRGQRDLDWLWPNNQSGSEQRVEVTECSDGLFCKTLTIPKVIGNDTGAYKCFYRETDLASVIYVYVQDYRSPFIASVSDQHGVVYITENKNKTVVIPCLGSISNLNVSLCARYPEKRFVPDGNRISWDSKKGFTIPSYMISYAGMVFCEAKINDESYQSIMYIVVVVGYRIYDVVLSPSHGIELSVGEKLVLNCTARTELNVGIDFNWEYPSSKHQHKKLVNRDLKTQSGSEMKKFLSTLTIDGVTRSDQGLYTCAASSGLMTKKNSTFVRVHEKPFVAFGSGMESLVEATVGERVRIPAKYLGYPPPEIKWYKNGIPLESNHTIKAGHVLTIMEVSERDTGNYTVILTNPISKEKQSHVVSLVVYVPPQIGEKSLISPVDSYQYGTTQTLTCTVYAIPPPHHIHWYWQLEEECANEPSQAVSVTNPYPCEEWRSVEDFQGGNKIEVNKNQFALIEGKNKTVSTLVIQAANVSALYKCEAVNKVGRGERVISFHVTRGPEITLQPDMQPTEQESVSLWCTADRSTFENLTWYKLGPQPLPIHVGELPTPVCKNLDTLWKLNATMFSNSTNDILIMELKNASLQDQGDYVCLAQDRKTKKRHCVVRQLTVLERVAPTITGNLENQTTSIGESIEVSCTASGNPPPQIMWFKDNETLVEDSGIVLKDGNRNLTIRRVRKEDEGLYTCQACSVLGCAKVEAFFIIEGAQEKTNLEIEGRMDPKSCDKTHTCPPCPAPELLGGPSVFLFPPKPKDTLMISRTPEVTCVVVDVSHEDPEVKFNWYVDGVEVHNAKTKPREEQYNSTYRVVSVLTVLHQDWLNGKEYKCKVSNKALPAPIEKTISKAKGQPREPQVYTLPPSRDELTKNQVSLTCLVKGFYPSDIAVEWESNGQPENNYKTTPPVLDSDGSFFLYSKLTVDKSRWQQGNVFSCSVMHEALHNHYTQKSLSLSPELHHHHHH
Procedure: 96 well EIA/RIA strip plates (COSTAR) were coated with 80 ng/ml recombinant VEGF overnight at 4°C, washed and blocked with blocking buffer (1% BSA and 5% sucrose) overnight at 4°C. Series of dilutions were prepared for recombinant proteins representing WT-TIMP-3, NT2:CT3 and N-T3 in PBS or synthetic peptides corresponding to T3-loop 5, T3-loop 6, T3-N or T3-tail peptides in 0.5 M Tris-HCl (pH 7.5). The diluents were mixed with 50 ng/ml recombinant human VEGFR-2 (KDR/Fc chimera, recombinant human VEGFR-1 (Flt-1)/Fc chimera (R&D Systems, Minneapolis, MN) or control human lgG (Sigma Aldrich, St Louis, MO). The mixtures were then added to the VEGF-coated well in a final volume of 100 µL in PBS and incubated for 2 hours at room temperature. Bound VEGFR-2 was detected by HRP-conjugated anti-human lgG(Fc specific) (1∶1000).

[5] = system: PAE/KDR cells; assay: Actin reorganization / membrane ruffle formation (FITC-phalloidin); type: cell-based, Porcine; conditions: peptide at doses as high as 20 µM; 50 ng/ml VEGF 30 min 37°C
Procedure: as §1
Subconfluent cells cultured on Falcon culture slides (BD Biosciences) were serum-starved overnight and stimulated for 30 min at 37°C with 50 ng/ml VEGF or control buffer. The cells were fixed with 3.7% paraformaldehyde in PBS for 30 min at 4°C and permeabilized with 0.2% Triton X-100 for 20 min at room temperature. Following rinsing with PBS, the cells were incubated with fluorescein isothiocyanate (FITC)-labeled phalloidin in PBS (0.66 µg/ml, Sigma Aldrich, St. Louis, MO) for 20 min at room temperature, washed with PBS and analyzed by fluorescence microscopy.
Figure 5 Effects of TIMP-3 peptides on VEGF-mediated actin reorganization. TIMP-3 loop 6 and tail but not loop 5 and N-peptide inhibit VEGF-induced actin reorganization in PAE/KDR cells. […]

[6] = system: PAE/KDR cells; assay: VEGF-induced endothelial cell proliferation; type: cell-based, Porcine; conditions: 1 µM peptide, 5 days; for Effect on VEGF-induced endothelial cell proliferation (in words): VEGF 5 ng/ml, ** p<0.01 vs VEGF control in figure legend
Procedure: as §1
Cells were seeded at a density of 2000 cells/well in 24 well culture plates and cultured for 24 h in growth medium. After synchronization overnight in serum-free medium supplemented with 0.1% BSA, the cells were stimulated with or without VEGF […] in the presence or absence of the indicated concentrations of TIMP-3 peptides. After a 5-day incubation, cells were trypsinized and counted using a Coulter particle counter.
Figure 6 Effects of TIMP-3 peptides on VEGF-mediated EC proliferation. […] Serum-starved cells were incubated with or without VEGF (5 ng/ml) in the presence or absence of the 1 µM of TIMP-3 peptides for 5 days.

Sequence	Inhibition of VEGF-stimulated MAP kinase activation [1]	Inhibition of VEGF-induced VEGFR-2 activation (phosphorylation) [2]	Inhibition of VEGF-induced migration [3]	Effect of synthetic peptides on VEGF binding to sVEGFR-2 (in words) [4]	Effect of synthetic peptides on VEGF binding to sVEGFR-2 (in words) ([4]; listed as Loop5)	Inhibition of VEGF-stimulated membrane ruffle formation [5]	Possible induction of endothelial cell proliferation [6]	Effect on VEGF-induced endothelial cell proliferation (in words) [6]
KIKSCYYLPCFVTS [T3-loop 5]	neither loop 5 nor N-peptide, even at higher concentrations (20 µM) inhibited VEGF-stimulated MAP kinase activation	failed to inhibit VEGF-induced receptor activation	failed to inhibit VEGF-induced migration	did not show any inhibitory activity	have no effect on sVEGFR-2-VEGF complexes	neither T3-loop 5 nor T3-N peptide at doses as high as 20 µM inhibited the formation of membrane ruffles	may in fact induce proliferation of endothelial cells	neither T3-loop 5 nor T3-N peptide showed inhibitory properties
RGFTKMPHVQYIHTEASESL [T3-N peptide]	neither loop 5 nor N-peptide, even at higher concentrations (20 µM) inhibited VEGF-stimulated MAP kinase activation	failed to inhibit VEGF-induced receptor activation	failed to inhibit VEGF-induced migration	did not show any inhibitory activity; also recorded: have no effect on sVEGFR-2-VEGF complexes		neither T3-loop 5 nor T3-N peptide at doses as high as 20 µM inhibited the formation of membrane ruffles	may in fact induce proliferation of endothelial cells	neither T3-loop 5 nor T3-N peptide showed inhibitory properties
